Assay results reported in patent publication US20240327459A1, “PEPTIDE FRAGMENTS FOR TREATMENT OF DIABETES” (Follicum AB, priority 2018, published 2024).
“Also recorded” adds a separate entry of the source.

How the values were obtained:
[1] = tested on: human pancreatic β-cell line 1.2B4; assay: Insulin secretion from 1.2B4 human β-cells; format: cell-based; conditions: 100 nM peptide, 16.7 mM glucose, 60 minutes
Method: In order to test the effect of FOL-014 and FOL-056 in human cells, the human pancreatic β-cell line 1.2B4 were cultured at 37° C. and 5% CO2 in RPMI 1640 supplemented with 10% fetal bovine serum, 50 IU/mL penicillin, 50 mg/L streptomycin, 1 mM L-glutamine. 1.2B4 cells were seeded in 24-well plates in RPMI medium and following overnight incubation, the medium was removed before pre-incubation for 40 min at 37° C. in Krebs-Ringer bicarbonate buffer, pH 7.4, supplemented with 10 mM HEPES, 0.1% bovine serum albumin and 1.0 mM glucose. Following pre-incubation, the buffer was exchanged with fresh Krebs-Ringer buffer as described above and supplemented with specific glucose concentrations, 1 mM or 16.7 mM. FOL-014, FOL-056 or Liraglutide was added at a concentration of 100 nM in the presence of 16.7 mM glucose. Immediately after 60 minutes incubation at 37° C., an aliquot of the buffer was removed and frozen for subsequent insulin ELISA assay. (FIG. 18)

[2] = tested on: INS-1E cells; assay: Insulin secreting capacity after 72 hours of glucotoxic conditions (Examples 19, 22); format: cell-based, rat; conditions: Example 19, 20 mM glucose 72 hours with peptide, then 16.7 mM glucose 1 h
Method: To investigate the β-cell protective effect of FOL-056, we subjected INS-1E to cytotoxic levels of glucose for 72 hours. Rat INS-1E cells were seeded in 96-well plates (2×10^3 cells/well) in cRPMI medium. Following 72 hours of incubation, the medium was changed to RPMI containing 20 mM glucose with or without FOL-056 or FOL-014 and were cultured at 37° C. during an additional 72 hours to induce glucotoxicity. RPMI containing 5 mM glucose was included as a low glucose control. Following 72 hours, the medium was removed and the INS-1E cells were equilibrated in Krebs-Ringer bicarbonate buffer (KREB), pH 7.4, (supplemented with 10 mM HEPES, 0.1% bovine serum albumin and 2.8 mM glucose) for 2 hours. After equilibration, the buffer was changed and the INS-1E cells were incubated in KREBs containing 16.7 mM glucose […] during 1 h. Immediately after incubation, an aliquot of the buffer was removed and frozen for subsequent assay of insulin content.
To investigate the β-cell protective effect of several novel peptide fragments derived from FOL-005 and FOL-014, INS-1 cells were subjected to cytotoxic levels of glucose for 72 hours. […] In order to correct for the variance between experiments, all values were normalized to, and expressed as percentage of the average value of the high glucose control in the individual experiments. […]

[3] = tested on: diet induced obese c57BI6 mice; assay: Acute insulin response in diet induced obese mice after long term dosing; format: in vivo, mouse; conditions: 300 nmol/kg subcutaneously 5 days per week, 12 weeks high fat diet; 1 minute after 1 g/kg iv glucose; P=0.01
Method: Materials and methods: To investigate the effects of FOL-056 in vivo in a high fat diet model, wild type c57BI6 mice were subcutaneously dosed 5 days per week with 300 nmol/kg FOL-056, while being fed high fat diet for 12 weeks. Control animals were dosed with PBS.
In diet induced obese c57BI6 mice, untreated or dosed with FOL-056, the fasting plasma insulin levels were measured before as well as 1 minute after an intravenous glucose injection of 1 g/kg. The insulin value measured before the glucose injection was subtracted from the value measured after the injection for each individual mouse in order to obtain the acute insulin response (AIR). (FIG. 20)

[4] = tested on: db/db mice; assay: HbA1c in db/db mice after 4 weeks of dosing; format: in vivo, mouse; conditions: 100 nmol/kg subcutaneously, 5 days per week for 4 weeks, vs PBS control
Method: To investigate the long-term effect of FOL-014 and FOL-056 in diabetic mice, db/db mice were dosed with 100 nmol/kg peptide subcutaneously, 5 days per week for 4 weeks. Control mice were injected with PBS. After 4 weeks of treatment the mice were terminated and 25 μl whole blood was immediately frozen for subsequent HbA1c analysis. (FIG. 21).

[5] = tested on: human islets; assay: Insulin secretion from human pancreatic islets; format: cell-based; conditions: 1 nM peptide, 16.7 mM glucose, 60 minutes, two donors
Method: To investigate the functionality of FOL-056 in human primary tissue, the pancreatic islets from two non-diabetic human donors were used. Islets were picked, aliquoted in groups of 12 and incubated at 37° C. in 1 ml Krebs-Ringer bicarbonate buffer, pH 7.4, supplemented with 10 mM HEPES, 0.1% bovine serum albumin and 1.0 mM glucose. Following pre-incubation, the buffer was exchanged with fresh Krebs-Ringer buffer as described above and supplemented with specific glucose concentrations (1 mM or 16.7 mM), FOL-056 peptides (1 nM) or Liraglutide (100 nM). Immediately after 60 minutes incubation at 37° C., an aliquot of the buffer was removed and frozen for subsequent insulin ELISA assay. (FIG. 19)

[6] = tested on: INS-1E cells; assay: Insulin secretion from INS-1E cells (Example 18); format: cell-based, rat; conditions: 100 nM peptide, high (16.7 mM) glucose buffer, 60 min, vs un-supplemented buffer
Method: To investigate the stimulatory effect of FOL-056 on insulin secretion we used INS-1E cells. The cells were seeded overnight and washed with PBS before pre-incubation for 60 min at 37° C. in Krebs-Ringer bicarbonate buffer (KRB), pH 7.4, supplemented with 10 mM HEPES, 0.1% bovine serum albumin. Following pre-incubation, the buffer was discarded and the INS-1E cells were incubated in fresh KRB buffer supplemented with 10 mM HEPES, 0.1% bovine serum albumin with or without peptide FOL-056. For comparative purposes cells treated with FOL-014 was included. Following 60 min incubation at 37.C, the buffer was removed and frozen for subsequent insulin assay.

## AEIDSIELSYGIK (MISC_FEATURE - peptide) [FOL-056]
[1]
  insulin secretion: increase the insulin secretion capacity in 1.2B4 human β-cells; also recorded: significantly increased the insulin secretion as compared with cells treated with an un-supplemented high glucose buffer
[2]
  insulin secreting ability after glucotoxic conditions: preserves β-cell function as shown by retained glucose induced insulin secretion; also recorded: abolished the glucotoxic effects and retained insulin release at the same level as from β-cells in the low (5 mM) glucose treatment group
[3]
  acute insulin response (AIR): significantly improved; also recorded: significantly higher
[4]
  HbA1c: reduce the HbA1c in db/db mice as compared with the untreated control group; also recorded: significantly lower HbA1c
[5]
  insulin secretion: potentiates the capacity of primary human pancreatic islets to secrete insulin as a response to high glucose levels; also recorded: significantly increased the insulin secretion as compared with cells treated with an un-supplemented high glucose buffer
[6]
  insulin secretion: secrete significantly more insulin compared to unstimulated control cells; also recorded: significantly increased the insulin secretion as compared with cells treated with an un-supplemented high glucose buffer
